These compounds were tested against T1, PD-1/PD-L1 (Homo sapiens, UniProt Q9NZQ7) (assay: PD1-PDL1 HTRF assay). Conditions: PD-1/PD-L1 homogenous time-resolved fluorescence (HTRF) binding assay; Tag1-PDL1 5 nM, Tag2-PD1 50 nM.
T1 construct: purchased CisBio
From the text: The CisBio HTRF assay kit, purchased from CisBio only, was employed to determine the IC50 values of compounds. The PD1-PDL1 HTRF assay measures the interactions between the two proteins, PD1 and PDL1. The interaction is detected by using anti-Tag1 labeled with Europium (HTRF donor) which binds to PDL1 and anti-Tag2 labeled with XL665 (HTRF acceptor) which binds to PD1. When the two antibodies are in proximity, the excitation of the donor fluorophore results in FRET emission from the acceptor fluorophore. The presence of inhibitors for such an interaction result in reduction of HTRF signal.
The assay was conducted in 96-well white assay plates. All the reagents, including Tag1-PDL1, Tag2-PD1, Anti-Tag1-PDL1, Anti-Tag2-PD1 were thawed and diluted with PPI Europium Detection buffer to achieve the desired concentration as per the manufacturer's protocol. A 1000 μM stock solution of test inhibitors was prepared in DMSO. The stock solution was diluted in DMSO to prepare 8 concentrations (1000-0.001 μM). These stock solutions were further diluted in PPI Europium detection buffer to prepare 8 working stock solutions (100-0.0001 μM). To the 96-well plate, 2 μL of the test inhibitor working stock solutions were added followed by 4 μL of Tag1-PDL1 (5 nM) and 4 μL of Tag2-PD1 (50 nM). The plate was incubated at room temperature for 15 min. Subsequently, 10 μL of pre-mixed Anti-Tag1-PDL1 and Anti-Tag2-PD1 solution was added. The plate was sealed and incubated at room temperature for 1 h. The HTRF signal was read on Perkin Elmer Envision plate reader using excitation wavelength of 320 nm, emission wavelengths of 620 nm and 665 nm. Results were obtained by calculating the ratio of signal from acceptor at 665 nm to that of signal from donor at 620 nm multiplied by […]. The IC50 values were determined by the Hill equation using GraphPad Prism software.

T1 sequence (Q9NZQ7 19-238 limits assumed): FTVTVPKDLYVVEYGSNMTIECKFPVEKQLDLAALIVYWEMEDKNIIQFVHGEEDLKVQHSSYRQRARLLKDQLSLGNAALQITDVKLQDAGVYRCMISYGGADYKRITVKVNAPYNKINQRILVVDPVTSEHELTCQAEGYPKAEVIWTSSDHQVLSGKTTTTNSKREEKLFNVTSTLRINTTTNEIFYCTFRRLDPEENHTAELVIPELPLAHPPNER

Compound	IC50
Cc1c(-c2ccccc2)cccc1-c1ccn2c(-c3ccc(CN4CCCCC4C(=O)O)cc3)cnc2c1 (racemic) [Example 1, 1-(4-(7-(2-methyl-[1,1′-biphenyl]-3-yl)imidazo[1,2-a]pyridin-3-yl)benzyl) piperidine-2-carboxylic acid]	100 to 1000 nM
Cc1c(-c2ccccc2)cccc1-c1ccn2c(-c3ccc(CN4CCC[C@H]4C(=O)O)cc3)cnc2c1 [Example 2, (4-(7-(2-methyl-[1,1′-biphenyl]-3-yl)imidazo[1,2-a]pyridin-3-yl)benzyl)proline]	10 to 100 nM
Cc1c(-c2ccccc2)cccc1-c1ccn2c(-c3ccc(CNC4(C(=O)O)COC4)cc3)cnc2c1 [Example 3, 3-((4-(7-(2-methyl-[1,1′-biphenyl]-3-yl)imidazo[1,2-a]pyridin-3-yl)benzyl)amino)oxetane-3-carboxylic acid]	100 to 1000 nM
Cc1c(-c2ccccc2)cccc1-c1ccn2c(-c3ccc(CN4C[C@H](O)C[C@H]4C(=O)O)cc3)cnc2c1 [Example 4, (2S,4R)-4-hydroxy-1-(4-(7-(2-methyl-[1,1′-biphenyl]-3-yl)imidazo[1,2-a]pyridin-3-yl)benzyl)pyrrolidine-2-carboxylic acid]	100 to 1000 nM
Cc1c(-c2ccccc2)cccc1-c1ccn2c(-c3ccc(CNC4(C(=O)O)CCC4)cc3)cnc2c1 [Example 5, 1-((4-(7-(2-methyl-[1,1′-biphenyl]-3-yl)imidazo[1,2-a]pyridin-3-yl)benzyl)amino)cyclobutane-1-carboxylic acid]	100 to 1000 nM
Cc1c(-c2ccccc2)cccc1-c1ccn2c(-c3ccc(CN4CCOCC4C(=O)O)cc3)cnc2c1 (centres unmarked) [Example 6, 4-(4-(7-(2-methyl-[1,1′-biphenyl]-3-yl)imidazo[1,2-a]pyridin-3-yl)benzyl)morpholine-3-carboxylic acid]	100 to 1000 nM
Cc1c(-c2ccccc2)cccc1-c1ccn2c(-c3ccc(CN4CC(C(=O)O)C4)cc3)cnc2c1 [Example 7, 1-(4-(7-(2-methyl-[1,1′-biphenyl]-3-yl)imidazo[1,2-a]pyridin-3-yl)benzyl)azetidine-3-carboxylic acid]	100 to 1000 nM
Cc1c(-c2ccccc2)cccc1-c1ccn2c(-c3ccc(CNCCCO)cc3)cnc2c1 [Example 8, 3-((4-(7-(2-methyl-[1,1′-biphenyl]-3-yl)imidazo[1,2-a]pyridin-3-yl)benzyl)amino)propan-1-ol]	100 to 1000 nM
Cc1c(-c2ccccc2)cccc1-c1ccn2c(-c3ccc(CN[C@H](C(=O)O)C(C)C)cc3)cnc2c1 [Example 9, (4-(7-(2-methyl-[1,1′-biphenyl]-3-yl)imidazo[1,2-a]pyridin-3-yl)benzyl)valine]	100 to 1000 nM
Cc1c(-c2ccccc2)cccc1-c1ccn2c(-c3ccc(CN4CCC[C@H]4C(=O)O)cc3)cnc2c1 [Example 10, (4-(7-(2-methyl-[1,1′-biphenyl]-3-yl)imidazo[1,2-a]pyridin-3-yl)benzyl)-L-proline]	100 to 1000 nM
Cc1c(-c2ccccc2)cccc1-c1ccn2c(-c3ccc(CN4CCC[C@@H]4C(=O)O)cc3)cnc2c1 [Example 11, (4-(7-(2-methyl-[1,1′-biphenyl]-3-yl)imidazo[1,2-a]pyridin-3-yl)benzyl)-D-proline]	100 to 1000 nM
Cc1c(-c2ccccc2)cccc1-c1ccn2c(-c3ccc(CNCC(=O)O)cc3)cnc2c1 [Example 12, (4-(7-(2-methyl-[1,1′-biphenyl]-3-yl)imidazo[1,2-a]pyridin-3-yl)benzyl)glycine]	100 to 1000 nM
Cc1c(-c2ccccc2)cccc1-c1ccn2c(-c3ccc(CN4CC[C@H]4C(=O)O)cc3)cnc2c1 [Example 13, (S)-1-(4-(7-(2-methyl-[1,1′-biphenyl]-3-yl)imidazo[1,2-a]pyridin-3-yl)benzyl)azetidine-2-carboxylic acid]	100 to 1000 nM
Cc1c(-c2ccccc2)cccc1-c1ccn2c(-c3ccc(CNCC(O)CC(=O)O)cc3)cnc2c1 (centres unmarked) [Example 14, 3-hydroxy-4-((4-(7-(2-methyl-[1,1′-biphenyl]-3-yl)imidazo[1,2-a]pyridin-3-yl)benzyl)amino) butanoic acid]	100 to 1000 nM

The remaining lines, values ahead:

IC50	Compound
100 to 1000 nM	Cc1c(-c2ccc3c(c2)OCCO3)cccc1-c1ccn2c(-c3ccc(CN4CCOCC4C(=O)O)cc3)cnc2c1 (racemic) [Example 33, 4-(4-(7-(3-(2,3-dihydrobenzo[b][1,4]dioxin-6-yl)-2-methylphenyl)imidazo[1,2-a]pyridin-3-yl)benzyl)morpholine-3-carboxylic acid]
100 to 1000 nM	Cc1c(-c2ccc3c(c2)OCCO3)cccc1-c1ccn2c(-c3ccc(CN4CCOCC4C(=O)O)cc3)cnc2c1 (single isomer, unassigned) [Example 34, 4-(4-(7-(3-(2,3-dihydrobenzo[b][1,4]dioxin-6-yl)-2-methylphenyl)imidazo[1,2-a]pyridin-3-yl)benzyl)morpholine-3-carboxylic acid]
100 to 1000 nM	Cc1c(-c2ccc3c(c2)OCCO3)cccc1-c1ccn2c(-c3ccc(CN4CCOCC4C(=O)O)cc3)cnc2c1 (single isomer, unassigned) [Example 35, 4-(4-(7-(3-(2,3-dihydrobenzo[b][1,4]dioxin-6-yl)-2-methylphenyl)imidazo[1,2-a]pyridin-3-yl)benzyl)morpholine-3-carboxylic acid]
100 to 1000 nM	Cc1c(-c2ccccc2)cccc1-c1ccn2c(-c3ccc(CNCCCO)cc3)nnc2c1 [Example 15, 3-((4-(7-(2-methyl-[1,1′-biphenyl]-3-yl)-[1,2,4]triazolo[4,3-a]pyridin-3-yl)benzyl)amino)propan-1-ol]
100 to 1000 nM	Cc1c(-c2ccccc2)cccc1-c1ccn2c(-c3ccc(CNC(C)(C)CO)cc3)cnc2c1 [Example 17, 2-methyl-2-((4-(7-(2-methyl-[1,1′-biphenyl]-3-yl)imidazo[1,2-a]pyridin-3-yl)benzyl)amino)propan-1-ol]
100 to 1000 nM	Cc1c(-c2ccccc2)cccc1-c1ccn2c(-c3ccc(CNCCC(=O)O)cc3)cnc2c1 [Example 18, 3-((4-(7-(2-methyl-[1,1′-biphenyl]-3-yl)imidazo[1,2-a]pyridin-3-yl)benzyl)amino)propanoic acid]
100 to 1000 nM	Cc1c(-c2ccccc2)cccc1-c1ccn2c(-c3ccc(CNCCS(=O)(=O)O)cc3)cnc2c1 [Example 19, 2-((4-(7-(2-methyl-[1,1′-biphenyl]-3-yl)imidazo[1,2-a]pyridin-3-yl)benzyl)amino)ethane-1-sulfonic acid]
100 to 1000 nM	COc1cc(-c2cnc3cc(-c4cccc(-c5ccccc5)c4C)ccn23)cc(OC)c1CN1CCCC1C(=O)O (centres unmarked) [Example 20, 1-(2,6-dimethoxy-4-(7-(2-methyl-[1,1′-biphenyl]-3-yl)imidazo[1,2-ai]pyridin-3-yl)benzyl)piperidine-2-carboxylic acid]
100 to 1000 nM	COc1cc(-c2cnc3cc(-c4cccc(-c5ccccc5)c4C)ccn23)cc(OC)c1CN1CCC[C@H]1C(=O)O [Example 21, (2,6-dimethoxy-4-(7-(2-methyl-[1,1′-biphenyl]-3-yl)imidazo[1,2-a]pyridin-3-yl)benzyl)proline]
100 to 1000 nM	Cc1c(-c2ccccc2)cccc1-c1ccn2c(-c3ccc(CN4CCC[C@@H]4CO)cc3)cnc2c1 [Example 23, (R)-(1-(4-(7-(2-methyl-[1,1′-biphenyl]-3-yl)imidazo[1,2-a]pyridin-3-yl)benzyl)pyrrolidin-2-yl)methanol]
100 to 1000 nM	Cc1c(-c2ccccc2)cccc1-c1ccn2c(-c3ccc(CN4CCC[C@H]4CO)cc3)cnc2c1 [Example 24, (S)-(1-(4-(7-(2-methyl-[1,1′-biphenyl]-3-yl)imidazo[1,2-a]pyridin-3-yl)benzyl)pyrrolidin-2-yl)methanol]
100 to 1000 nM	Cc1c(-c2ccc3c(c2)OCCO3)cccc1-c1ccn2c(-c3ccc(CN4CC(C(=O)O)C4)cc3)cnc2c1 [Example 25, 1-(4-(7-(3-(2,3-dihydrobenzo[b][1,4]dioxin-6-yl)-2-methylphenyl)imidazo[1,2-a]pyridin-3-yl)benzyl)azetidine-3-carboxylic acid]
100 to 1000 nM	Cc1c(-c2ccc3c(c2)OCCO3)cccc1-c1ccn2c(-c3ccc(CN4CC[C@H]4C(=O)O)cc3)cnc2c1 [Example 26, (S)-1-(4-(7-(3-(2,3-dihydrobenzo[b][1,4]dioxin-6-yl)-2-methylphenyl)imidazo[1,2-a]pyridin-3-yl)benzyl)azetidine-2-carboxylic acid]
100 to 1000 nM	Cc1c(-c2ccc3c(c2)OCCO3)cccc1-c1ccn2c(-c3ccc(CN4CCC[C@@H]4C(=O)O)cc3)cnc2c1 [Example 27, (4-(7-(3-(2,3-dihydrobenzo[b][1,4]dioxin-6-yl)-2-methylphenyl)imidazo[1,2-a]pyridin-3-yl)benzyl)-D-proline]
100 to 1000 nM	Cc1c(-c2ccc3c(c2)OCCO3)cccc1-c1ccn2c(-c3ccc(CN4CCC[C@H]4C(=O)O)cc3)cnc2c1 [Example 28, (4-(7-(3-(2,3-dihydrobenzo[b][1,4]dioxin-6-yl)-2-methylphenyl)imidazo[1,2-a]pyridin-3-yl)benzyl)-L-proline]

Reference: US20260265248A1, “NOVEL PD-L1 INHIBITORS” (AFFIRMA BIOTECH S. L., priority 2023, published 2026)
